# Assay results as given in US20230381163A1, “DABIGATRAN COMPOSITIONS AND METHODS OF TREATING AGE-RELATED MACULAR DEGENERATION” (The United States Government As Represented By The …, priority 2022, published 2023).
# B1: C5a: complement component, anaphylatoxin (Complement Technology) (protein, UniProt P01031 678-751, looked up)
# C5a anaphylatoxin: TLQKKIEEIAAKYKHSVVKKCCYDGACVNNDETCEQRAARISLGPRCIKAFTECCVVASQLRANISHKDMQLGR
# modifications: C5a anaphylatoxin
# What was measured:
# [1] = system: VEGF secretion in ARPE-19 cells; experiment: VEGF secretion into apical supernatant of ARPE-19 monolayers (ELISA); assay type: cell-based, human
# Experimental: (§1) Cell culture experiments: Cells. […] Frontiers in Aging Neuroscience 9).
# VEGF ELISA. VEGF in the supernatant was measured using the Quantikine® Human VEGF Immunoassay (R & D System) according to the manufacturer's protocol. In brief, 200 μl of standard/sample was mixed with 50 μl of assay diluent and added to the plate precoated with the capture antibody. After washing, 200 μl of the VEGF detection antibody (polyclonal antibody specific for human VEGF conjugated to horseradish peroxidase) was added, followed by freshly prepared substrate reagents (stabilized hydrogen peroxide and tetramethylbenzidine). The reaction was terminated using 50 μl of stop solution and absorbance was measured at λ1 450 nm with wavelength correction λ2 at 540 nm. VEGF concentration of samples were calculated comparing the absorbance with the standards and converted into fold change considering the serum-free condition as 1 in the scale.
# [2] = system: CTGF expression in ARPE-19 cells; experiment: Thrombin-induced CTGF expression in ARPE-19 cell lysates (western blot); conditions: for reduction of thrombin-induced CTGF expression: thrombin 1 U/mL
# Experimental: Cell culture experiments: Cells. Human ARPE-19 (ATCC® CRL-2302™; American Type Culture Collection, Manassas VA) cells were cultured in DMEM cell culture media (Gibco/ThermoFisher Scientific) containing high glucose DMEM with D-glucose (4.5 g/L), L-glutamine, sodium pyruvate (110 mg/L), Penicillin and Streptomycin (1×) and 10% of FBS. Cells (<passage 10 after purchase) were expanded in T75 cell culture flasks at 37° C., in the presence of 5% CO2. Confluent cells were trypsinized with 0.05% trypsin (Gibco), and equal numbers of cells were seeded on 6-well transwell filters/plate (Costar). […] Integrity of the cell monolayer was assessed by Transepithelial resistance (TER) measurements using an EVOM volt-ohmmeter (World Precision Instruments) four weeks after plating. RPE monolayers with a stable TER repeatedly measured as ˜40-45 S2 cm 2 were used for these experiments.
# Treatments. Prior to each experiment, the cell monolayer was washed with serum-free medium (SFM) and maintained in SFM for 24 hours. […] Treatments were performed on the apical side of the transwell membrane, which represents the retinal side of the RPE in vivo. Some of the cells were treated with thrombin (EMD Millipore Corp), complement components C3a, C5a (Complement Technology), thrombin agonist PAR1-AP (Sigma-Aldrich; amino acid sequence SFLLRN (SEQ ID NO: 1)), thrombin inhibitor dabigatran etexilate (Sigma-Aldrich), C3 inhibitor compstatin (R&D Systems), AP inhibitor TT30 (Alexion Therapeutics), a protease inhibitor alpha1-antitrypsin (Sigma-Aldrich), and the thrombin receptor proteinase activated receptor 1 inhibitor SCH 79797 (Sigma-Aldrich). Treatments were performed 60 min prior to the addition of thrombin. Cell culture supernatant and lysate were collected after specific time points or after 24 hrs of treatment and stored at −20° C. for later use.
# Western blotting. […] Cell lysates were collected in RIPA cell lysis buffer containing 150 mM NaCl, 1.0% IGEPAL® CA-630, 0.5% sodium deoxycholate, 0.1% SDS, 50 mM Tris (pH 8.0) (Sigma-Aldrich) in presence of 1×protease inhibitor (Sigma-Aldrich). Equal amount of each samples were loaded on 4-20% Criterion™ TGX™ precast gels (Bio-Rad Laboratories, Inc.) (Annamalai, B., et al. (2020). Invest Ophthalmol Vis Sci 61, 45). Proteins were transferred to a nitrocellulose membrane and incubated in primary antibody followed by appropriate secondary antibodies coupled to peroxidase, followed by band development and detection using Clarity™ Western ECL blotting substrate (Bio-Rad Laboratories, Inc.) and chemiluminescent detection. Protein bands were scanned and densities quantified using ImageJ software. The following antibodies were used: C3a (1:1000; Complement Technology), C5a (1:1000; Abcam), connective tissue growth factor/CTGF (1:1000; Abcam), C3d anti-C3d (clone 11, 1:1000; generation of the antibody is described in (Thurman, J. M., et al. (2013). J Clin Invest 123, 2218-2230)), VEGF (1:1000, Santa Cruz Biotechnology, Inc.), β-actin (1:2000; Cell Signaling Technology) and concentrations selected based on the data sheet recommendations.
# ARPE-19 cell monolayers were treated with thrombin (0.5-10 U/ml) and cell lysates were collected and analyzed for CTGF levels at 4 hrs post treatment by western blotting.
# complement component C3 = experiment: Thrombin-mediated C3 cleavage in apical supernatants of ARPE-19 cells (western blot); assay type: cell-based, human; conditions: 100 μM
# Experimental: Second, it was tested whether thrombin can cleave complement components (Huber-Lang, M., et al. (2006). Nat Med 12, 682-687; and Krisinger, M. J., et al. (2012). Blood 120, 1717-1725), specifically C3 and C5, producing cleavage products potentially different from those produced by classical convertases. To test the effects of thrombin on complement cleavage, the apical supernatants of treated ARPE-19 cell monolayers were analyzed by western blotting. Cleavage of C3α was evaluated using an antibody specific for C3a (FIG. 5A, left-hand blot). The C3a antibody detected C3, the C3α band as well as other fragments containing C3a. Thrombin caused a concentration dependent cleavage of complement component C3 (˜190 kDa), caused reduction of the 120 kDa C3a band and generation of a new 80 kDa fragment. Fragments at 32 kDa and 9-10 kDa with higher doses of thrombin treatment (FIG. 5A, 10 U/mL) were also observed. The 9-10 kDa band ran at the same molecular weight as purified C3a (FIG. 11). The reduction of the 120 kDa fragment was correlated with the generation of the 80 kDa fragment (FIG. 5B). The loss of the 120 kDa fragment was prevented by either dabigatran (10 μM) or the C3 inhibitor compstatin (100 μM), which inhibits complement both on cell membranes as well as in fluid phase, but not by TT30 (10 μM), which is an inhibitor that prevents membrane-bound AP activation (FIG. 5C). […]
# thrombin = thrombin (Homo sapiens, UniProt P00734); experiment: Thrombin activity in cell-free system; conditions: 100 μM
# Experimental: Thrombin activity in cell-free system. To measure the level of active thrombin in cell-free system, known concentrations of thrombin were prepared in 100 μl of assay buffer (50 mM Tris, 100 mM NaCl, and 0.01% BSA; pH 7.5), subsequently 50 μl of thrombin substrate was added and incubated at 37° C. Fluorescence was measured at 405 nm using the Biotek Synergy HT Microplate Reader and thrombin activity was determined by extrapolation from a thrombin standard curve. Effects of inhibitors were tested by pre-incubating the inhibitors with thrombin, before substrate incorporation.
# ARPE-19 cell monolayers = experiment: Transepithelial resistance (TER) of ARPE-19 monolayers; assay type: cell-based, human
# Experimental: as §1
# Thrombin reduces barrier function in RPE cells and induces CTGF expression and VEGF secretion. […] Thrombin is a serine-protease and is a known contributor to the damage of the blood-brain barrier (Machida, T., et al. (2017). PLoS One 12, e0177447). To examine the effects of thrombin on the blood-retina barrier (i.e., TER), dose- (0.5-10.0 U/ml) and time- (4 and 24 hrs) dependent treatments were performed on stable ARPE-19 cell monolayers, and treatment effects on TER levels to TER at baseline (serum free media/SFM before treatment, 0 hrs) (FIG. 2) were compared.
molecule,measurement,setting,value
CC(C)c1ccc(Cn2ccc3c4c(N)nc(NC5CC5)nc4ccc32)cc1 [SCH79797],effect on thrombin-induced VEGF secretion,[1]; SCH79797,reduced
same,reduction of thrombin-induced CTGF expression,[2]; SCH79797 250 μM,1.7 fold
CC[C@H](C)[C@H](N)C(=O)N[C@H]1CSSC[C@@H](C(=O)N[C@H](C(N)=O)[C@@H](C)O)NC(=O)[C@H](CCCN=C(N)N)NC(=O)[C@H](Cc2cnc[nH]2)NC(=O)[C@H](Cc2cnc[nH]2)NC(=O)CNC(=O)[C@H](Cc2c[nH]c3ccccc23)NC(=O)[C@H](CC(=O)O)NC(=O)[C@H](CCC(N)=O)NC(=O)[C@H](C(C)C)NC(=O)[C@H](C(C)C)NC1=O [compstatin],effect on thrombin-induced VEGF secretion,[1]; compstatin,partially reduce
same,effect on thrombin-mediated loss of the 120 kDa C3 fragment,complement component C3,prevented
same,effect on thrombin enzyme activity,thrombin,did not affect
same,effect on thrombin-induced CTGF expression,[2]; compstatin,partially reduce
"C3a: complement component, anaphylatoxin (Complement Technology)",effect on VEGF secretion,"[1]; C3a, 260 nM",weak stimulator
alpha1-antitrypsin: general (non-specific) protease inhibitor (Sigma-Aldrich),reduction of thrombin-induced CTGF expression,[2]; alpha1-antitrypsin 1 mg/mL,5.3 fold
thrombin,increase of VEGF in apical supernatants,[1]; thrombin alone,2.5 fold
same,effect on TER,"ARPE-19 cell monolayers; thrombin 0.5 U/mL, apical",barely affected
same,effect on TER,"ARPE-19 cell monolayers; thrombin 2.5 U/ml, 24 hrs",significant damage to the epithelial barrier integrity
same,effect on TER,"ARPE-19 cell monolayers; thrombin 5 U/ml and 10 U/ml, 4 hrs",significant barrier function loss
same,effect on CTGF expression,"[2]; thrombin, 4 hrs, P<0.05",significantly increased
B1,effect on VEGF secretion,"[1]; C5a, 52 nM",increasing VEGF levels to that identified by thrombin stimulation
